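In this assay, cells in 96-well plates receive the compound at five concentrations for 48 hours. Endpoints are linearly interpolated between the surrounding concentrations. GI50 = concentration required for 50% inhibition of growth.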 Activity calls are given as the source filed them. Rule as the data show it: active = GI50 up to about 1.1 µM and inactive = higher.
Legend:
Test in all cases: DTP human tumour cell line panel, 48 h
[1] = test system: SNB-75
[2] = test system: SF-268
[3] = test system: OVCAR-3
[4] = test system: LOX IMVI
[5] = test system: SK-OV-3
[6] = test system: M19-MEL
[7] = test system: SK-MEL-5
[8] = test system: OVCAR-8
[9] = test system: UACC-62
[10] = test system: M14
[11] = test system: A498
[12] = test system: HOP-92
[13] = test system: SK-MEL-2
[14] = test system: NCI-H226
[15] = test system: SNB-19
[16] = test system: DMS-114
[17] = test system: UACC-257
[18] = test system: TK-10
[19] = test system: CCRF-CEM
[20] = test system: LXFL 529
[21] = test system: U-251
[22] = test system: RXF 631
[23] = test system: SK-MEL-28
[24] = test system: KM-20L2
[25] = test system: A549
[26] = test system: COLO 205
[27] = test system: OVCAR-4
[28] = test system: RXF 393
[29] = test system: HCT-116
[30] = test system: RPMI-8226
[31] = test system: KM12
[32] = test system: EKVX
[33] = test system: SNB-78
[34] = test system: 786-0
[35] = test system: HOP-62
[36] = test system: UO-31
[37] = test system: XF498
[38] = test system: SF-295
[39] = test system: SF-539
[40] = test system: NCI-H522
[41] = test system: DMS-273
[42] = test system: ACHN
[43] = test system: CAKI-1
[44] = test system: SR
[45] = test system: SN12C
[46] = test system: HL-60
[47] = test system: MOLT-4
[48] = test system: IGROV-1
[49] = test system: DLD-1
[50] = test system: K562
[51] = test system: HOP-18
[52] = test system: HT-29
[53] = test system: Malme-3M
[54] = test system: SW-620
[55] = test system: HCC 2998
[56] = test system: OVCAR-5
[57] = test system: NCI-H460
[58] = test system: NCI-H23
[59] = test system: HCT-15

N#CC1(C#N)C(c2ccccc2)C=CC12OCCCO2 (configuration not stated)
GI50 [1]: 42.9 µM (inactive) | GI50 [2]: 28.4 µM (inactive) | GI50 [3]: 33 µM (inactive) | GI50 [4]: 40.4 µM (inactive) | GI50 [5]: > 100 µM (inactive) | GI50 [6]: 40.3 µM (inactive) | GI50 [7]: 53.8 µM (inactive) | GI50 [8]: 17.7 µM (inactive) | GI50 [9]: 33.3 µM (inactive) | GI50 [10]: 29.7 µM (inactive) | GI50 [11]: 48.6 µM (inactive) | GI50 [12]: 30.5 µM (inactive) | GI50 [13]: 72.4 µM (inactive) | GI50 [14]: 78.7 µM (inactive) | GI50 [15]: > 100 µM (inactive) | GI50 [16]: 24.3 µM (inactive) | GI50 [17]: 27.4 µM (inactive) | GI50 [18]: 48.9 µM (inactive) | GI50 [19]: 26.9 µM (inactive) | GI50 [20]: 28.5 µM (inactive) | GI50 [21]: 45.2 µM (inactive) | GI50 [22]: 81.3 µM (inactive) | GI50 [23]: 27 µM (inactive) | GI50 [24]: 68.5 µM (inactive) | GI50 [25]: 88.9 µM (inactive) | GI50 [26]: 26.2 µM (inactive) | GI50 [27]: 59.4 µM (inactive) | GI50 [28]: 17 µM (inactive) | GI50 [29]: 24.9 µM (inactive) | GI50 [30]: 27.7 µM (inactive) | GI50 [31]: 38.1 µM (inactive) | GI50 [32]: 59.3 µM (inactive) | GI50 [33]: 31.6 µM (inactive) | GI50 [34]: 31.9 µM (inactive) | GI50 [35]: > 100 µM (inactive) | GI50 [36]: 97.3 µM (inactive) | GI50 [37]: 49.4 µM (inactive) | GI50 [38]: 76 µM (inactive) | GI50 [39]: 21.6 µM (inactive) | GI50 [40]: 16.3 µM (inactive) | GI50 [41]: 32.3 µM (inactive) | GI50 [42]: 42.7 µM (inactive) | GI50 [43]: 24.5 µM (inactive) | GI50 [44]: 27 µM (inactive) | GI50 [45]: 32.6 µM (inactive) | GI50 [46]: 23.4 µM (inactive) | GI50 [47]: 26.7 µM (inactive) | GI50 [48]: 60.5 µM (inactive) | GI50 [49]: 26 µM (inactive) | GI50 [50]: 30.6 µM (inactive) | GI50 [51]: > 100 µM (inactive) | GI50 [52]: 47.5 µM (inactive) | GI50 [53]: 42.2 µM (inactive) | GI50 [54]: 31.1 µM (inactive) | GI50 [55]: 84.9 µM (inactive) | GI50 [56]: 51.5 µM (inactive) | GI50 [57]: 42 µM (inactive) | GI50 [58]: 31.2 µM (inactive)

Cc1cc(O)c2c(c1)C(O)(c1ccc3c(c1O)C(=O)c1c(O)cc(C)cc1C3(O)C1OC(CO)C(O)C(O)C1O)c1cccc(O)c1C2=O (configuration not stated)
GI50 [1]: 14.1 µM (inactive) | GI50 [2]: 20.1 µM (inactive) | GI50 [3]: 10.5 µM (inactive) | GI50 [4]: 11.4 µM (inactive) | GI50 [5]: 17.6 µM (inactive) | GI50 [6]: 12.2 µM (inactive) | GI50 [7]: 18.9 µM (inactive) | GI50 [8]: 13.4 µM (inactive) | GI50 [9]: 12.1 µM (inactive) | GI50 [10]: 14.4 µM (inactive) | GI50 [11]: 13.6 µM (inactive) | GI50 [12]: 6.19 µM (inactive) | GI50 [15]: 16.4 µM (inactive) | GI50 [16]: 9.91 µM (inactive) | GI50 [17]: 13.7 µM (inactive) | GI50 [18]: 14.1 µM (inactive) | GI50 [19]: 8.34 µM (inactive) | GI50 [20]: 11.9 µM (inactive) | GI50 [21]: 11.6 µM (inactive) | GI50 [22]: 16 µM (inactive) | GI50 [23]: 15 µM (inactive) | GI50 [24]: 18.6 µM (inactive) | GI50 [25]: 18.3 µM (inactive) | GI50 [27]: 12.9 µM (inactive) | GI50 [28]: 12.1 µM (inactive) | GI50 [29]: 11.9 µM (inactive) | GI50 [30]: 16 µM (inactive) | GI50 [31]: 11.5 µM (inactive) | GI50 [32]: 14.3 µM (inactive) | GI50 [33]: 16.1 µM (inactive) | GI50 [34]: 15.3 µM (inactive) | GI50 [35]: 15.3 µM (inactive) | GI50 [36]: 17.7 µM (inactive) | GI50 [37]: 5.08 µM (inactive) | GI50 [38]: 11.6 µM (inactive) | GI50 [39]: 13.6 µM (inactive) | GI50 [41]: 15.1 µM (inactive) | GI50 [42]: 13 µM (inactive) | GI50 [43]: 17.7 µM (inactive) | GI50 [44]: 8.15 µM (inactive) | GI50 [46]: 3.09 µM (inactive) | GI50 [47]: 10.7 µM (inactive) | GI50 [48]: 14.7 µM (inactive) | GI50 [49]: 11.5 µM (inactive) | GI50 [50]: 5.15 µM (inactive) | GI50 [51]: 5.06 µM (inactive) | GI50 [52]: 20.5 µM (inactive) | GI50 [53]: 11.7 µM (inactive) | GI50 [54]: 17.3 µM (inactive) | GI50 [55]: 16 µM (inactive) | GI50 [56]: 18.1 µM (inactive) | GI50 [59]: 12.8 µM | GI50 [57]: 14 µM (inactive) | GI50 [58]: 15.2 µM (inactive)
